Consider five compounds from patent US5989846A, “Assays to identify inducers of plant defense resistance” (Rutgers, The State University of New Jersey, priority 1995, dated 1999).

In test [1] the test system is TMV. In kind it is in vivo, tobacco mosaic virus. The note with it: TMV infection six days after injection, lesions measured seven days post infection, treated vs untreated leaf half. Here is the method:
The SA/SAG valves are given in micrograms per gram fresh weight of leaf tissue and represent averages of values from 3-6 treated plants at 6 days past injection. […] For determination of reduction in lesion size, longitudinal halves of 2 leaves on 3-6 plants were injection with chemicals, and six days later the entire leaf was infected with TMV. Twenty lesions were measured on each half of the leaf seven days post infection; the values given represent the average percent reduction in lesion diameter in the treated leaf half compared to the untreated half.

In test [2] the target is ascorbate peroxidase. Nature of the test: Ascorbate peroxidase activity in tobacco leaf extracts. In kind it is biochemical, Nicotiana tabacum cv. Xanthi nc. In short, it runs like this: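 Soluble extracts from leaves of 6–8-week Nicotiana tabacum cv. Xanthi nc, desalted into 50 mM potassium phosphate pH 7 with 100 μM ascorbate, were assayed (30–50 μg protein) with or without 100 or 1000 μM SA or INA. Ascorbate oxidation followed as A290 decrease; means of three replicates.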

Test [3] deals with guaiacol peroxidases. The test is described as follows: Guaiacol peroxidase activity in tobacco leaf extracts. The class given is biochemical, Nicotiana tabacum cv. Xanthi nc. Here is the method:
Inhibition of peroxidase by SA and INA was determined by measuring the enzyme activities in extracts prepared from tobacco leaves in the absence or presence of 100 μM or 1000 μM SA or INA. Two grams of leaves from 6-8 week old tobacco plants (Nicotiana tabacum cv. Xanthi nc) grown at 22° C. in a 14 hr light cycle were homogenized under liquid nitrogen using a pestle and mortar.
Total guaiacol peroxidase activity was extracted with 100 mM potassium phosphate, pH 6.2, containing 1% (weight/volume) polyvinylpyrrolidone. In order to also extract the ionically bound cell wall isozymes, the extraction buffer was supplemented with 600 mM KCl. Extraction and centrifugation steps were as described for ascorbate peroxidase. After removal of cell debris and ammonium sulfate precipitation (85%), the extract was desalted against 50 mM potassium phosphate, pH 6, containing 25% glycerol. The extract could be stored at -20° C. without significant loss of peroxidase activity.
(§1) Guaiacol peroxidase activity was determined by the method of Chance and Maehly (Methods Enzymol. 2: 764 (1955)) using guaiacol as the substrate.
(§2) The formation of tetraguaiacol was monitored at 470 nm. The reaction mixture contained 0.25% guaiacol and 100 mM hydrogen peroxide in 20 mM potassium phosphate, pH 6.2. The amount of protein per 1 ml assay was […]. The reaction was measured for five minutes. The assay for horseradish peroxidase was identical, except that only 0.2-0.5 μg protein was used.

Test [4] has as its target T1, horseradish peroxidase (Armoracia rusticana, UniProt P00433).
T1 construct: purchased Sigma
T1 sequence (P00433 31-353): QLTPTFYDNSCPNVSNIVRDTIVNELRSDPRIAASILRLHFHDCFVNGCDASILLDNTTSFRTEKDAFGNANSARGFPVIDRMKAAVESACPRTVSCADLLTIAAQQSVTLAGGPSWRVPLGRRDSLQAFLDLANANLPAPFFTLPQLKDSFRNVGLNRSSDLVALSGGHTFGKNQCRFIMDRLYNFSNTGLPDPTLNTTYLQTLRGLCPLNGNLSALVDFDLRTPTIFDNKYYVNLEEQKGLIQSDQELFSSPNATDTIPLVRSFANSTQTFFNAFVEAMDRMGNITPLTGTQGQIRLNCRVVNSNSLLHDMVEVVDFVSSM
Nature of the test: Horseradish peroxidase activity. In kind it is biochemical. Here is the method:
Horseradish peroxidase (1 mg; obtained from Sigma) was dissolved in 1.5 ml 200 mM potassium phosphate, pH 6.2, containing 150 mM NaCl. Following a 15 minute incubation at room temperature, the enzyme solution was centrifuged (10,000 g, 10 minutes). After buffer exchange (PD-10, equilibrated with 25 mM potassium phosphate, pH 6.2), the protein concentration was adjusted to 0.5 mg/ml.
as §1, §2

Test [5] deals with PR1 genes. The test is described as follows: PR-1 protein/gene expression in tobacco leaves (immunoblot). Conditions: tobacco leaves. The class given is in vivo. Here is the method:
The level of PR1 protein in tobacco leaves was analyzed by immunoblot analysis to establish biological activity. Three leaf discs (1 cm in diameter) were homogenized in 200 microliters of buffer containing 50 mM Tris (pH 8.0), 1 mM EDTA, 12 mM beta-mercaptoethanol and 10 mg/ml phenylmethylsulfonyl fluoride. The homogenate was centrifuged at full speed for 10 minutes in an Eppendorf microcentrifuge. The supernatant was fractionated with 15% polyacrylamide gel under denatured conditions. Protein blotting was done with a monoclonal antibody specific to PR1 protein and protein-antibody complexes were detected with an ECL kit from Amersham.
PR gene expression is both induced by SA and associated with the development of SAR. Therefore, it was of interest to test whether SA's mechanism of action for the induction of PR genes was via its inhibition of catalases which leads to enhanced H2 O2 levels. To address this question, H2 O2 abundance was artificially raised in tobacco leaves by treating with H2 O2 or compounds which either inhibit the catalase activity, like SA itself, or promote generation of H2 O2 in vivo. […]

Test [6] has as its system H2 O2. The test is described as follows: Abundance of H2O2 in treated tobacco leaves. The class given is in vivo. Conditions: FIG. 11. An excerpt: The abundance of H2 O2 increased in SA- or 3AT-treated tobacco leaves by 50-60% over the control levels observed in water-treated leaves. […] Thus, elevated levels of H2 O2, and in turn, enhanced oxidative stress in vivo, were consistent with inhibition of catalase activity by SA observed in vitro.

The test system of test [7] is salicylic acid binding protein. Nature of the test: Effect of antioxidants on salicylic acid binding activity. On the set-up: species or system tobacco. Conditions: 20 mM citrate, 5 mM MgCl, 10% glycerol pH 6.5, FIG. 5. How it is done: This was measured in buffers containing 20 mM citrate, 5 mM MgCl and 10% glycerol pH 6.5 in addition to the indicated concentrations of antioxidant.
A key element during the characterization and the purification process is a simple, inexpensive, sensitive and reliable method for determining the salicylic acid binding activity. For this purpose, spin-column exclusion chromatography was used to separate the bound [^14 C] salicylic acid (excluded) from the bulk free salicylic acid (included). Specifically, a 1.5 ml Eppendorf tube was punctured at the tip with a 20-gauge needle and a small amount of glass wool was added to cover the small hole. The tube was then filled with Bio-Gel P-6DG desalting gel (exclusion limit 6 KDa; purchased from Bio-Rad, Melville, N.Y.) which have been swollen in water. An alternative gel is Sephadex G-25 fine (from Pharmacia, Piscataway, N.J.). Excess liquid in the gel was removed and centrifuged for 5 minutes at full speed in a Dynamic centrifuge (Becton Dickinson). The process was then repeated several times until the gel filled the tube. After incubation of an aliquot of the extract or column fractions for 2 hr at 4° C. with 5 μM-20 μM [^14 C salicylic acid] (specifically radioactivity 55 Ci/mol; purchased from New England Nuclear), 150 μl of proteins binding sample was loaded onto the tube column, which was then rapidly centrifuged for 2 minutes at full speed and the solution of proteins and bound [^14 C-salicylic acid] that was excluded from the gel was collected into another tube that had been placed under the tube column during the centrifugation. One hundred microliters of this solution was then used to determine the amount of bound salicylic acid. […] For example, to determine the inhibitory effect of various salicylic acid analogues on salicylic acid binding activity, these individual analogues were included in the binding mixture containing both the protein and [^14 C] salicylic acid during the 2 hr incubation, and resulting binding activity was determined in comparison to the activity in the absence of these analogues. […]

In the case of `O=C(O)c1cc(Cl)nc(Cl)c1` [INA, 2,6-dichloroisonicotinic acid], the “Reduction in lesion size (%)” value in test [1] was determined as 72%. The IC50 in test [2] (750 μM ascorbate, 25 to 500 μM compound, FIG. 17, read-out: Concentration necessary for 50% inhibition (I50) of ascorbate peroxidase) came to 95 µM. In addition, the Activity in test [2] (APX, 100 μM compound) is on record as 2.25 ± 0.4 μmols of oxidized substrate mi; in test [2] (APX, 1,000 μM compound) it was 0.24 ± 0.2 μmols of oxidized substrate mi; in test [3] (POX, 100 μM compound), 2.8 ± 0.4 μmols of oxidized substrate mi; in test [3] (POX, 1,000 μM compound), 2.7 ± 0.4 μmols of oxidized substrate mi; in test [4] (HRP, 100 μM compound), 236 ± 8 μmols of oxidized substrate mi; in test [4] (HRP, 1,000 μM compound) it was 242 ± 16 μmols of oxidized substrate mi. Moreover, the Inhibition (usually the relative decrease from the control value, in per cent) was 54% in test [2] (APX, 100 μM compound); 95% in test [2] (APX, 1,000 μM compound); 0% in test [3] (POX, 100 μM compound); 3% in test [3] (POX, 1,000 μM compound). Moreover, the inhibition (in general, the drop in the measured response relative to a control, in per cent) at 100 µM in test [4] (HRP, 100 μM compound) turned out to be 1%. Also, 1000 µM produced 0% inhibition in test [4] (HRP, 1,000 μM compound).

As to `Nc1nc[nH]n1` [3AT, 3-amino-1,2,4-triazole], the “Induction of PR1 gene expression” value in test [5] is on record as “induced the expression of PR-1 genes”. For the same compound, the “Increase in abundance of H2O2 over water-treated leaves” value in test [6] was 50-60%.

For `O=C1O[C@H]([C@@H](O)CO)C(O)=C1O` [ascorbic acid], the “Effect on salicylic acid binding activity of SABP” value (“Effect” for short) in test [7] was “little inhibitory effect”.

Turning to `OCCS` [beta-mercaptoethanol], the “Effect” value in test [7] is reported as “affected”.

In the case of `O[C@H](CS)[C@H](O)CS` (racemic) [dithiothreitol], in test [7], the “Effect” value was “affected”.
